Assay [1] concerns the target T1, Tau protein (wild-type K18) (Homo sapiens, UniProt P10636).
T1 construct: Tau protein (wild-type K18)
Briefly: Tau protein aggregation inhibition test (thioflavin T assay). In kind it is biochemical. The note with it: heparin/DTT-induced aggregation, 37° C. 5 days, ThT fluorescence vs tau-only control = 100%. Here is the method: Tau protein (wild-type K18) was dissolved in phosphate-buffered saline (PBS, pH 7.4) at a concentration of 1 mg/mL to prepare a tau protein solution. In order to induce aggregation of tau proteins, 0.1 mg/mL of heparin and 100 μM dithiothreitol (DTT) were added to 1 mg/mL of the tau protein solution, followed by incubation at 37° C. for 5 days. At this time, the result was mixed with each test compound (50, 500 μM) such that the final concentration reached 0.5 mg/mL, followed by further incubation.
The inhibitory effect of each compound against tau aggregation was measured based on the intensity of fluorescence by thioflavin T (ThT) assay (see Example 2). More specifically, 25 μL of the reaction solution was charged in each well of a 96-well plate for fluorescence analysis, and 75 μL of the prepared thioflavin-T solution was then charged in each well. The reaction was allowed to proceed at room temperature in a dark laboratory for 5 minutes, and then fluorescence values were measured at an excitation wavelength of 450 nm and an emission wavelength of 485 nm using a multi-mode microplate reader.
The ratio of the fluorescence value measured in the group obtained by treating with each test compound to 100% of the fluorescence value of the group (control group) obtained by treating only with tau proteins and inducing aggregation for 5 days is set forth in Table 5 below: […]

Assay [2] deals with T2, aggregated tau protein (wild-type K18) (Homo sapiens, UniProt P10636).
T2 construct: Tau protein (wild-type K18)
T2 sequence (P10636 561-685 limits assumed): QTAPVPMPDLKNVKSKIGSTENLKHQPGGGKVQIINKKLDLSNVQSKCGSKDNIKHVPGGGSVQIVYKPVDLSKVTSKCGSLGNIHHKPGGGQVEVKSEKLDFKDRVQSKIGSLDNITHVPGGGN
Briefly: Tau protein aggregate degradation test (thioflavin T assay). In kind it is biochemical. The note with it: pre-aggregated tau, further 5 days at 37° C., ThT fluorescence vs control = 100%. Here is the method: Tau protein (wild-type K18) was dissolved in phosphate-buffered saline (PBS, pH 7.4) at a concentration of 1 mg/mL to prepare a tau protein solution. 0.1 mg/mL of heparin and 100 μM dithiothreitol (DTT) were added to 1 mg/mL of the tau protein solution, followed by incubation at 37° C. for 5 days to induce tau protein aggregation. The aggregated tau protein was mixed with each test compound in an amount of 50 or 500 μM such that the final concentration reached 0.5 mg/mL, followed by further incubation at 37° C. for 5 days to induce reaction.
The degradation effect of each compound on the tau aggregates was measured by thioflavin T (ThT) assay (see Example 2). More specifically, 25 μL of the reaction solution was charged in each well of a 96-well plate for fluorescence analysis and 75 μL of the prepared thioflavin-T solution was charged in each well. The reaction was allowed to proceed at room temperature in a dark laboratory for 5 minutes and then fluorescence values were measured at an excitation wavelength of 450 nm and an emission wavelength of 485 nm using a multi-mode microplate reader.
The ratio of the fluorescence value measured in the group obtained by treating with each test compound to 100% of the fluorescence value of the group (control group) obtained by treating only with tau proteins and inducing aggregation for 5 days is set forth in Table 6 below: […]

SMILES strings stand for the structures.

T1 sequence (P10636 561-685 limits assumed): as above

Turning to `O=C1NC(=S)SC1Cc1csc2ccccc12` (centres unmarked) [DN204300, 5-(benzo[b]thiophen-3-ylmethyl)-2-thioxothiazolidin-4-one], in assay [1] (50 uM test compound), the “Tau aggregation remaining (ThT fluorescence, % of tau-only control)” value is given as 92.633 % of control.
With `O=C1NC(=O)/C(=C/c2ccoc2)S1` [DN204287, (Z)-5-(furan-3-ylmethylene)thiazolidine-2,4-dione], the “ThT fluorescence remaining (% of control)” value in assay [2] (50 uM test compound) was 61.17 % of control; in assay [2] (500 uM test compound), 71.42 % of control. Also, the entries for the “Tau aggregation remaining (ThT fluorescence, % of tau-only control)” value in assay [1] (50 uM test compound) and in assay [1] (500 uM test compound) were 69.16 % of control and 59.86 % of control, respectively.
As to `O=C1NC(=O)C(Cc2cc[nH]c2)S1` (centres unmarked) [DN204307, 5-((1H-pyrrol-3-yl)methyl)thiazolidine-2,4-dione], the “Tau aggregation remaining (ThT fluorescence, % of tau-only control)” value in assay [1] (500 uM test compound) was 57.26 % of control.
Regarding `O=C1NC(=O)/C(=C/c2ccsc2)S1` [DN204288, (Z)-5-(thiophen-3-ylmethylene) thiazolidine-2,4-dione], the “Tau aggregation remaining (ThT fluorescence, % of tau-only control)” value in assay [1] (50 uM test compound) was 74.09 % of control; in assay [1] (500 uM test compound), 80.79 % of control.
Take `O=C1NC(=S)SC1Cc1ccoc1` (centres unmarked) [DN204305, 5-(furon-3-ylmethyl)-2-thioxothiazolidin-4-one]: the “ThT fluorescence remaining (% of control)” value was 61.22 % of control in assay [2] (50 uM test compound) and 56.43 % of control in assay [2] (500 uM test compound). Also, the “Tau aggregation remaining (ThT fluorescence, % of tau-only control)” value was 83.45 % of control in assay [1] (50 uM test compound) and 56.13 % of control in assay [1] (500 uM test compound).
In the case of `O=C1NC(=O)/C(=C/c2c[nH]c3cnccc23)S1` [DN204290, (Z)-5-((1H-pyrrolo[2,3-c]pyridin-3-yl)methylene)thiazolidine-2,4-dione], the “ThT fluorescence remaining (% of control)” value in assay [2] (50 uM test compound) is 54.41 % of control; in assay [2] (500 uM test compound), 40.38 % of control. Also, the “Tau aggregation remaining (ThT fluorescence, % of tau-only control)” value is reported as 63.13 % of control in assay [1] (50 uM test compound) and 42.61 % of control in assay [1] (500 uM test compound).
As to `CCN1C(=O)/C(=C/c2csc3ccccc23)SC1=S` [DN205782, (Z)-5-(benzo[b]thiophen-3-ylmethylene)-3-ethyl-2-thioxothiazolidin-4-one], the “Tau aggregation remaining (ThT fluorescence, % of tau-only control)” value is listed as 97.55 % of control in assay [1] (50 uM test compound) and 75.35 % of control in assay [1] (500 uM test compound).
Turning to `O=C1NC(=S)SC1Cc1ccsc1` (centres unmarked) [DN204306, 5-(thiophen-3-ylmethyl)-2-thioxothiazolidin-4-one], the “ThT fluorescence remaining (% of control)” value was 66.03 % of control in assay [2] (50 uM test compound) and 73.34 % of control in assay [2] (500 uM test compound). The “Tau aggregation remaining (ThT fluorescence, % of tau-only control)” value in assay [1] (50 uM test compound) is listed as 66.31 % of control; in assay [1] (500 uM test compound) it was 52.16 % of control.
With `CCN1C(=O)/C(=C/c2csc3ccccc23)NC1=S` [DN204810, (Z)-5-(benzo[b]thiophen-3-ylmethylene)-3-ethyl-2-thioxoimidazolidin-4-one], the results for the “Tau aggregation remaining (ThT fluorescence, % of tau-only control)” value in assay [1] (50 uM test compound) and in assay [1] (500 uM test compound) were 87.61 % of control and 65.66 % of control, respectively.
Consider `CN1C(=O)N/C(=C\c2cccc3ccoc23)C1=O` [DN204670, (Z)-5-(benzofuran-7-ylmethylene)-3-methylimidazolidine-2,4-dione], for which the “Tau aggregation remaining (ThT fluorescence, % of tau-only control)” value in assay [1] (50 uM test compound) was 87.73 % of control.
Turning to `O=C1NC(=O)C(Cc2c[nH]c3ccccc23)S1` (centres unmarked) [DN204295, 5-((1H-indol-3-yl)methyl)thiazolidine-2,4-dione], the “ThT fluorescence remaining (% of control)” value in assay [2] (50 uM test compound) is given as 89.98 % of control. Moreover, the results for the “Tau aggregation remaining (ThT fluorescence, % of tau-only control)” value in assay [1] (50 uM test compound) and in assay [1] (500 uM test compound) were 74.98 % of control and 59.6 % of control, respectively.
In the case of `O=C1NC(=O)/C(=C/c2c[nH]c3ccccc23)S1` [DN204285, (Z)-5-((1H-indol-3-yl)methylene)thiazolidine-2,4-dione], the “ThT fluorescence remaining (% of control)” value is listed as 64.04 % of control in assay [2] (50 uM test compound) and 78.38 % of control in assay [2] (500 uM test compound). Also, the “Tau aggregation remaining (ThT fluorescence, % of tau-only control)” value in assay [1] (50 uM test compound) is recorded as 53.14 % of control; in assay [1] (500 uM test compound), 42.56 % of control.
Take `O=C1NC(=S)SC1Cc1c[nH]c2ccccc12` (centres unmarked) [DN204301, 5-((1H-indol-3-yl)methyl)-2-thioxothiazolidin-4-one]: the “ThT fluorescence remaining (% of control)” value in assay [2] (50 uM test compound) was 80.31 % of control; in assay [2] (500 uM test compound), 45.47 % of control. The “Tau aggregation remaining (ThT fluorescence, % of tau-only control)” value in assay [1] (50 uM test compound) is listed as 90.337 % of control; in assay [1] (500 uM test compound), 39.019 % of control.
For the molecule `O=C1NC(=S)SC1Cc1cnc2ccccc2c1` (centres unmarked) [DN204302, 5-(quinolin-3-ylmethyl)-2-thioxothiazolidin-4-one], the “Tau aggregation remaining (ThT fluorescence, % of tau-only control)” value in assay [1] (50 uM test compound) is given as 67.16 % of control; in assay [1] (500 uM test compound), 47.38 % of control.
As for `O=C1NC(=O)C(Cc2csc3ccccc23)S1` (centres unmarked) [DN204291, 5-(benzo[b]thiophen-3-ylmethyl)thiazolidine-2,4-dione], in assay [1] (50 uM test compound), the “Tau aggregation remaining (ThT fluorescence, % of tau-only control)” value is given as 65.99 % of control.
As for `CN1C(=O)N/C(=C\c2csc3ccccc23)C1=O` [DN204671, (Z)-5-(benzo[b]thiophen-3-ylmethylene)-3-methylimidazolidine-2,4-dione], the “Tau aggregation remaining (ThT fluorescence, % of tau-only control)” value in assay [1] (50 uM test compound) is given as 88.61 % of control; in assay [1] (500 uM test compound), 77.02 % of control.
As for `O=C1NC(=O)C(Cc2ccoc2)S1` (centres unmarked) [DN204292, 5-(furan-3-ylmethyl)thiazolidine-2,4-dione], the “ThT fluorescence remaining (% of control)” value is 82.23 % of control in assay [2] (50 uM test compound) and 77.46 % of control in assay [2] (500 uM test compound). Besides, the “Tau aggregation remaining (ThT fluorescence, % of tau-only control)” value in assay [1] (50 uM test compound) was 63.18 % of control; in assay [1] (500 uM test compound) it was 60.16 % of control.
Take `CCN1C(=O)/C(=C/c2cccc3ccccc23)SC1=S` [DN205783]: the “Tau aggregation remaining (ThT fluorescence, % of tau-only control)” value in assay [1] (50 uM test compound) was 81.81 % of control; in assay [1] (500 uM test compound), 69.79 % of control.
As to `CCN1C(=O)N/C(=C\c2c[nH]c3ccncc23)C1=O` [DN205822, (Z)-5-((1H-pyrrolo[3,2-c]pyridin-3-yl)methylene)-3-ethylimidazolidine-2,4-dione], in assay [1] (50 uM test compound), the “Tau aggregation remaining (ThT fluorescence, % of tau-only control)” value is recorded as 83.97 % of control.
For the molecule `O=C1NC(=O)C(Cc2ccsc2)S1` (centres unmarked) [DN204293, 5-(thiophen-3-ylmethyl)thiazolidine-2,4-dione], the “ThT fluorescence remaining (% of control)” value in assay [2] (500 uM test compound) is on record as 95.86 % of control. For the same molecule, the “Tau aggregation remaining (ThT fluorescence, % of tau-only control)” value is listed as 55.97 % of control in assay [1] (50 uM test compound) and 58.22 % of control in assay [1] (500 uM test compound).
As to `CCN1C(=O)/C(=C/c2c[nH]c3cnccc23)SC1=S` [DN205779, (Z)-5-((1H-pyrrolo[2,3-c]pyridin-3-yl)methylene)-3-ethyl-2-thioxothiazolidin-4-one], the “Tau aggregation remaining (ThT fluorescence, % of tau-only control)” value in assay [1] (50 uM test compound) was 83.56 % of control; in assay [1] (500 uM test compound) it was 62.51 % of control.
For the molecule `CCN1C(=O)/C(=C/c2cccs2)NC1=S` [DN204815, (Z)-3-ethyl-5-(thiophen-2-ylmethylene)-2-thioxoimidazolidin-4-one], the “ThT fluorescence remaining (% of control)” value is 39.88 % of control in assay [2] (50 uM test compound) and 36.97 % of control in assay [2] (500 uM test compound). Also, the “Tau aggregation remaining (ThT fluorescence, % of tau-only control)” value in assay [1] (500 uM test compound) is given as 70.7 % of control.

The values above are taken from patent US20230129364A1, “PYRROLIDINE DERIVATIVE, AND PHARMACEUTICAL COMPOSITION FOR PREVENTING OR TREATING BETA-AMYLOID OR TAU PROTEIN-ASSOCIATED DISEASES CONTAINING SAME” (YONSEI UNIVERSITY, UNIVERSITY - INDUSTRY FOUNDATION (UIF), priority 2019, published 2023).
